Results on one compound are retold here after PMC9804084, “Multiple drug transporters contribute to the brain transfer of levofloxacin” (CNS Neuroscience & Therapeutics, 2022).

Like-named read-outs stand apart in the source and are kept apart here.

Data set [1] has as its target T1, Breast cancer resistance protein (BCRP) (Rattus norvegicus, UniProt Q80W57).
T1 construct: from tissue; host or cells: living rat (blood-brain barrier, choroid plexus)
T1 sequence (Q80W57 1-657): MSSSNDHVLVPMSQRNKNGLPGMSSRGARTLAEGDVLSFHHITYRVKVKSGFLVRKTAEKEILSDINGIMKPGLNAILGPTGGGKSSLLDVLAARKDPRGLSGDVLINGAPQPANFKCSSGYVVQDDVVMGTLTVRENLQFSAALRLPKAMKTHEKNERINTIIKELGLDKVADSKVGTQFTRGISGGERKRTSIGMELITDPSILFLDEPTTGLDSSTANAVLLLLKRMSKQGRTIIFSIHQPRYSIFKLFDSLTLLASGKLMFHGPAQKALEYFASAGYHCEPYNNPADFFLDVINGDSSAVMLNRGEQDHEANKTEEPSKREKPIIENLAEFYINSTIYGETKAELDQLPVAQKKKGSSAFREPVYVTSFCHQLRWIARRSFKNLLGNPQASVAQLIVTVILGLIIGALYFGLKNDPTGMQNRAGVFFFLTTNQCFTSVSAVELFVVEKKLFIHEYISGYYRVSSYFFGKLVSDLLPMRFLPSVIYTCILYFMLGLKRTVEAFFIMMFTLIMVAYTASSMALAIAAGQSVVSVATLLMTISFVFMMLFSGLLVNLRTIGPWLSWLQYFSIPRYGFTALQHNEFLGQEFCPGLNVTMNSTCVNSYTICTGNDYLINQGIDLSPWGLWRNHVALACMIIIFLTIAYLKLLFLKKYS
As to the kind of experiment: In vivo microdialysis pharmacokinetics of LVFX with BCRP inhibitor Ko143. Conditions: intravenous, with Ko143 15 mg/kg i.p., Ko143 group, Ko143 15 mg/kg i.p. + LVFX 50 mg/kg; for MRT / AUC(0-inf) / Cmax / half-life / AUC(0-t): mean ± SD; for MRT / Tmax / AUC(0-inf) / Cmax / half-life: N=5; for AUC(0-t): N=5, read-out: AUC0–180 (converted). The procedure: (§1) On the day of surgery, rats were anesthetized using inhaled isoflurane via a facemask. The rats were placed in a stereotaxic frame (Gene&I), and the body temperature was maintained with a homoeothermic blanket set at 37°C. A midline incision was made to expose the skull. According to the Paxinos and Watson atlas, two microdialysis intracerebral guide cannulae (Eicom Co.) were implanted into the hippocampus CA1 region (Hp‐CA1 coordinates: AP −4.16 mm; ML −2.2 mm; DV −2.9 mm) and lateral ventricle (LV coordinates: AP −1.4 mm; ML +2.2 mm; DV −3.4 mm). Fixed to the skull using a screw and dental cement. After 3 days of recovery, the rats were anesthetized with isoflurane again. An intravascular probe (TP‐100‐20; 20 mm, Eicom Co.) was implanted into the jugular vein toward the right atrium. After the blood microdialysis probe was positioned within the jugular vein, the pipeline was connected to perfuse with ACD solution (citric acid 3.5 mM; sodium citrate 7.5 mM; dextrose 13.6 mM) at a flow rate of […], and the Hamilton microinjection pump was used for continuous perfusion. After stopping isoflurane inhalation, the rats were allowed to wake up naturally on the homoeothermic blanket. The awake rats were placed in a device that allowed them to move freely. Animals were allowed to recover for an additional 24 h.
(§2) All microdialysate concentrations (C m) from the hippocampal ECF and lateral ventricle CSF were converted to the unbound drug concentration (C u) at the target site using the following formula: C u = C m/R dial.
(§3) A total of 32 rats were randomly divided into the following groups: • Control group, N = 12: vehicle solution + LVFX (50 mg/kg). • TAR group, N = 5: Tariquidar (8 mg/kg) + LVFX (50 mg/kg). • Ko143 group, N = 5: Ko143 (15 mg/kg) + LVFX (50 mg/kg). • MK571 group, N = 5: MK571 (20 mg/kg) + LVFX (50 mg/kg). • PRO group, N = 5: Probenecid (50 mg/kg) + LVFX (50 mg/kg).
(§4) Levofloxacin was freshly dissolved in isotonic saline and administered via tail vein injection. Thirty minutes before LVFX administration, the intervention drugs of each group were injected intraperitoneally. To reduce the possible effect of solvents on BBB or BCSFB permeability of LVFX, we prioritized water as the solvent. However, Tariquidar and Ko143 are insoluble in water, and a cosolvent must be used to prepare agents that animals can tolerate. According to the different physicochemical properties of these four inhibitors, the preparation of each transporter inhibitor solution in this experiment was as follows. • P‐glycoprotein (P‐gp) inhibitor Tariquidar[22]: Tariquidar was freshly dissolved in DMSO to 8 mg/ml and then diluted to 4 mg/ml with a solution containing 10% Tween‐80, 25% PEG300, and 65% sterile water. • Breast cancer resistance protein (BCRP) inhibitor Ko143[23]: Ko143 was freshly dissolved in DMSO to 15 mg/ml and then diluted to 7.5 mg/ml with a solution containing 10% Tween‐80, 25% PEG300, and 65% sterile water. • Multidrug resistance‐associated proteins (MRPs) inhibitor MK571[24]: MK571 sodium salt hydrate was dissolved in 1.25% (w/v) aq sodium hydrogen carbonate (NaHCO3) solution to obtain a concentration of 10 mg/ml. • Organic anion transporters (OATs) inhibitor probenecid[25]: Probenecid was dissolved in NaOH (pH = 9.0–9.2) alkalized physiological saline to obtain a concentration of 25 mg/ml.
(§5) The pipelines where the blood and brain probes were installed were perfused at the speed of 2 μl/min with ACD solution and ACSF, respectively. Two brain probes were inserted into guide cannulas of the target site and allowed to equilibrate for 1 h. Subsequently, the rats were treated according to their corresponding groups in the device where they could move freely. Microdialyses samples were collected every 15 min using a fraction collector (EFC‐96, Eicom Co.) for 3 h and stored at 4°C until analysis. Finally, rats were anesthetized and decapitated, and their brain was harvested.

Data set [2] relates to T2, Breast cancer resistance protein (BCRP).
T2 construct: from tissue; host or cells: living rat (blood-brain barrier, choroid plexus)
The description is as above. Conditions: rat, intravenous, with Ko143 15 mg/kg i.p., 30 min before LVFX, Ko143 group, Ko143 15 mg/kg i.p. + LVFX 50 mg/kg, N=5. As to the method: as §1, §2, §3, §4, §5

Setting [3] is: CSF (lateral ventricle microdialysate, unbound), CSF.
Where [4] appears, read: brain ECF (hippocampal microdialysate, unbound), 30 min before LVFX, brain ECF.

For the compound `C[C@H]1COc2c(N3CCN(C)CC3)c(F)cc3c(=O)c(C(=O)O)cn1c23` [LVFX, Levofloxacin], the MRT (usually the average time that molecules of a dose stay in the body) in data set [1] (CSF (lateral ventricle microdialysate, unbound), 30 min before LVFX, CSF) is 69.6 min. For the same compound, in data set [1] (setting [3]), the time to peak (Tmax) (commonly the time from dosing to the highest level) was 15 min; the AUC(0-inf) (as a rule, the area under the concentration-time curve extrapolated to infinity) is 4940 ng·h/mL; the peak concentration (Cmax) – broadly, the maximum level reached in the sampled fluid or tissue – is 4260 ± 320 ng/mL; the half-life (in general, how long it takes for the measured level to halve) is 41.8 ± 6.9 min. For the same compound, in data set [1] (setting [3]), the AUC(0-t) was 4650 ng·h/mL. For the same compound, in data set [1] (setting [4]), the time to peak (Tmax) was 15 min, the AUC(0-inf) is 4650 ng·h/mL, the maximum concentration (Cmax) worked out at 3710 ± 250 ng/mL and the MRT is 75.5 min. Further, in data set [1] (setting [4]), the half-life came to 44.4 ± 10.4 min and the AUC(0-t) was 4280 ng·h/mL. In data set [1] (30 min before LVFX, blood), the time to peak (Tmax) was 15 min, the AUC(0-inf) is 11900 ng·h/mL, the Cmax stood at 11000 ± 770 ng/mL and the MRT was 67.7 min. In data set [1] (30 min before LVFX, blood), the half-life is 42.8 ± 7.7 min and the AUC(0-t) was 11100 ng·h/mL. In data set [2] (CSF / blood (unbound, microdialysate), AUCu,CSF/AUCu,blood, read-out: K p,uu,CSF), the Kp was determined as 0.424 ± 0.035. Moreover, the Kp in data set [2] (brain ECF / blood, AUCu,ECF/AUCu,blood, read-out: K p,uu,ECF) worked out at 0.389 ± 0.024.
